Results from ChEMBL document CHEMBL5550184, “Structure-activity relationships of middle-size cyclic peptides, KRAS inhibitors derived from an mRNA display” (Bioorg Med Chem, 2024).
Positions of bridges follow the written chain, without caps; N, C: chain ends. Non-standard residues stand in square brackets, D forms with d. Residues, ends and D or L forms follow the SMILES beside them. *: point of attachment. hPhe(3-Cl-4-CF3) = N[C@@H](CCc1ccc(C(F)(F)F)c(Cl)c1)C(=O)O; NMeGly(cPent) = CN[C@H](C(=O)O)C1CCCC1; NMeCha = CN[C@@H](CC1CCCCC1)C(=O)O; NMeD = CN[C@@H](CC(=O)O)C(=O)O; NMeL = CN[C@@H](CC(C)C)C(=O)O; Morpholide = C1CN(*)CCO1; NMeA = CN[C@@H](C)C(=O)O; Piperidide = C1CCN(*)CC1; Ac5c = NC1(C(=O)O)CCCC1; Aze = O=C(O)[C@@H]1CCN1; Sar = CNCC(=O)O

How the values were obtained:
[1] = AUCinfinity in Cynomolgus monkey at 0.167 mg/kg, iv measured upto 24 hrs by LC-MS/MS analysis; assay type: ADME, organism-based, Macaca fascicularis; details: in vivo
[2] = Volume of distribution at steady state in Cynomolgus monkey at 0.167 mg/kg, iv measured upto 24 hrs by LC-MS/MS analysis; assay type: ADME, organism-based, Macaca fascicularis; details: in vivo, read-out: Vdss
[3] = Metabolic stability in human liver microsomes assessed as intrinsic clearance per mg protein at 0.2 uM measured upto 30 mins by LC-MS/MS analysis; assay type: ADME, Microsome; details: read-out: CLH
[4] = Oral bioavailability in Wistar Hannover rat at 10 mg/kg measured upto 48 hrs by LC-MS/MS analysis; assay type: ADME, organism-based; details: in vivo
[5] = Metabolic stability in rat liver microsomes assessed as intrinsic clearance per mg protein at 0.2 uM measured upto 30 mins by LC-MS/MS analysis; assay type: ADME, Microsome; details: read-out: CLH
[6] = Clearance in BALB/c nude mouse at 1 mg/kg, iv measured upto 24 hrs by LC-MS/MS analysis; assay type: ADME, organism-based; details: in vivo
[7] = Metabolic stability in mouse liver microsomes assessed as intrinsic clearance per mg protein at 0.2 uM measured upto 30 mins by LC-MS/MS analysis; assay type: ADME, Microsome; details: read-out: CLH
[8] = Volume of distribution at steady state in BALB/c nude mouse at 1 mg/kg, iv measured upto 24 hrs by LC-MS/MS analysis; assay type: ADME, organism-based; details: in vivo, read-out: Vdss
[9] = Clearance in Cynomolgus monkey at 0.167 mg/kg, iv measured upto 24 hrs by LC-MS/MS analysis; assay type: ADME, organism-based, Macaca fascicularis; details: in vivo
[10] = AUCinfinity in Wistar Hannover rat at 1 mg/kg, iv measured upto 24 hrs by LC-MS/MS analysis; assay type: ADME, organism-based; details: in vivo
[11] = Half-life in Wistar Hannover rat at 10 mg/kg, po measured upto 48 hrs by LC-MS/MS analysis; assay type: ADME, organism-based; details: in vivo
[12] = AUCinfinity in Wistar Hannover rat at 10 mg/kg, po measured upto 48 hrs by LC-MS/MS analysis; assay type: ADME, organism-based; details: in vivo
[13] = Apparent permeability in human Caco-2 cells incubated for 180 mins by LC-MS/MS method; assay type: ADME, cell-based
[14] = Inhibition of biotin-tagged KRAS G12D mutant (unknown origin) to recombinant His-tagged SOS1 (unknown origin) protein-protein interaction incubated for 120 mins by AlphaLISA method; design: species or system Homo sapiens
[15] = Half-life in Wistar Hannover rat at 1 mg/kg, iv measured upto 24 hrs by LC-MS/MS analysis; assay type: ADME, organism-based; details: in vivo
[16] = target: GTPase KRas (Homo sapiens, UniProt P01116, G12D); assay: Binding affinity to biotinylated KRAS G12D mutant (unknown origin) incubated for 120 mins by SPR analysis
Sequence of GTPase KRas (P01116 whole entry G12D): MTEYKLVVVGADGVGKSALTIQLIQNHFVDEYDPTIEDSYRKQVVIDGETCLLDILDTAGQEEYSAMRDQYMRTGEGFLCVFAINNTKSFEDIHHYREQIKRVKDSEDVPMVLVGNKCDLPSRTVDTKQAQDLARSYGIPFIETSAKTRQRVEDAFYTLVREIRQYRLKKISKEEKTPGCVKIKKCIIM

[17] = AUCinfinity in BALB/c nude mouse at 1 mg/kg, iv measured upto 24 hrs by LC-MS/MS analysis; assay type: ADME, organism-based; details: in vivo
[18] = Half-life in Cynomolgus monkey at 0.167 mg/kg, iv measured upto 24 hrs by LC-MS/MS analysis; assay type: ADME, organism-based, Macaca fascicularis; details: in vivo
[19] = Half-life in BALB/c nude mouse at 1 mg/kg, iv measured upto 24 hrs by LC-MS/MS analysis; assay type: ADME, organism-based; details: in vivo
[20] = Clearance in Wistar Hannover rat at 1 mg/kg, iv measured upto 24 hrs by LC-MS/MS analysis; assay type: ADME, organism-based; details: in vivo
[21] = Half-life in BALB/c nude mouse at 20 mg/kg, po measured upto 24 hrs by LC-MS/MS analysis; assay type: ADME, organism-based; details: in vivo
[22] = Metabolic stability in monkey liver microsomes assessed as intrinsic clearance per mg protein at 0.2 uM measured upto 30 mins by LC-MS/MS analysis; assay type: ADME, Macaca mulatta, Microsome; details: rhesus monkey, read-out: CLH
[23] = tested on: ASPC1; assay: Cytotoxicity against human AsPC1 cells assessed as reduction in cell viability incubated for 7 days by CellTiterGlo Luminescent Cell Viability Assay; assay type: functional, cell-based; details: ASPC1, 168 h
[24] = Oral bioavailability in BALB/c nude mouse at 20 mg/kg measured upto 24 hrs by LC-MS/MS analysis; assay type: ADME, organism-based; details: in vivo
[25] = Oral bioavailability in Cynomolgus monkey at 15 mg/kg measured upto 48 hrs by LC-MS/MS analysis; assay type: ADME, organism-based, Macaca fascicularis; details: in vivo
[26] = AUCinfinity in Cynomolgus monkey at 15 mg/kg, po measured upto 48 hrs by LC-MS/MS analysis; assay type: ADME, organism-based, Macaca fascicularis; details: in vivo
[27] = AUCinfinity in BALB/c nude mouse at 20 mg/kg, po measured upto 24 hrs by LC-MS/MS analysis; assay type: ADME, organism-based; details: in vivo
[28] = Half-life in Cynomolgus monkey at 15 mg/kg, po measured upto 48 hrs by LC-MS/MS analysis; assay type: ADME, organism-based, Macaca fascicularis; details: in vivo
[29] = Volume of distribution at steady state in Wistar Hannover rat at 1 mg/kg, iv measured upto 24 hrs by LC-MS/MS analysis; assay type: ADME, organism-based; details: in vivo
[30] = Oral bioavailability in Cynomolgus monkey at 10 mg/kg measured upto 24 hrs by LC-MS/MS analysis; assay type: ADME, organism-based, Macaca fascicularis; details: in vivo
[31] = Half-life in Cynomolgus monkey at 10 mg/kg, po measured upto 48 hrs by LC-MS/MS analysis; assay type: ADME, organism-based, Macaca fascicularis; details: in vivo
[32] = Half-life in Cynomolgus monkey at 0.168 mg/kg, iv measured upto 24 hrs by LC-MS/MS analysis; assay type: ADME, organism-based, Macaca fascicularis; details: in vivo
[33] = Volume of distribution at steady state in Cynomolgus monkey at 0.168 mg/kg, iv measured upto 24 hrs by LC-MS/MS analysis; assay type: ADME, organism-based, Macaca fascicularis; details: in vivo, read-out: Vdss
[34] = Clearance in Cynomolgus monkey at 0.168 mg/kg, iv measured upto 24 hrs by LC-MS/MS analysis; assay type: ADME, organism-based, Macaca fascicularis; details: in vivo
[35] = AUCinfinity in Cynomolgus monkey at 10 mg/kg, po measured upto 48 hrs by LC-MS/MS analysis; assay type: ADME, organism-based, Macaca fascicularis; details: in vivo
[36] = AUCinfinity in Cynomolgus monkey at 0.168 mg/kg, iv measured upto 24 hrs by LC-MS/MS analysis; assay type: ADME, organism-based, Macaca fascicularis; details: in vivo

microsomal CLint at 0.2 µM [3] | bioavailability [4] | microsomal CLint at 0.2 µM [5] | clearance [6] | microsomal CLint at 0.2 µM [7] | Vd [8] | AUC(0-inf) [10] | half-life [11] | AUC(0-inf) [12] | Papp at 3 h [13] | IC50 [14] | Kd [16] | half-life [19] | half-life [21] | microsomal CLint at 0.2 µM [22] | SMILES | IC50 [23] | also measured
26 µL/min/mg | 21% | 28 µL/min/mg | 12.4 mL/min/kg | 27 µL/min/mg | 3 L/kg | 2140 ng·h/mL | 3.96 h | 3520 ng·h/mL | 1.74 ×10⁻⁶ cm/s | < 2 nM | 0.18 nM | 5.98 h | 4.16 h | 43 µL/min/mg | CC[C@H](C)[C@@H]1NC(=O)[C@H](CC(C)C)N(C)C(=O)C[C@@H](C(=O)N2CCOCC2)N(C)C(=O)[C@H](C2CCCC2)N(C)C(=O)C2(CCCC2)NC(=O)[C@@H]2CCCN2C(=O)[C@H](CCc2ccc(C(F)(F)F)c(Cl)c2)NC(=O)CN(C)C(=O)[C@H](CC2CCCCC2)N(C)C(=O)[C@@H]2CCN2C(=O)[C@H](C)N(C)C1=O ([NMeL]I[NMeA][Aze][NMeCha][Sar][hPhe(3-Cl-4-CF3)]P[Ac5c][NMeGly(cPent)][NMeD]-Morpholide; lactam N-11) | 4.8 nM | AUC [1]: 673 ng·h/mL; Vd [2]: 0.37 L/kg; clearance [9]: 4.3 mL/min/kg; half-life ([15]; Wistar Hannover): 5.57 h; AUC(0-inf) ([17]; BALB/c nude): 1350 ng·h/mL; half-life [18]: 8.14 h; clearance [20]: 7.81 mL/min/kg; bioavailability ([24]; BALB/c nude): 14%; F [25]: 7.2%; AUC [26]: 12500 ng·h/mL; AUC(0-inf) ([27]; BALB/c nude): 3880 ng·h/mL; half-life [28]: 7.71 h; Vd ([29]; Wistar Hannover, read-out: Vdss): 0.82 L/kg
18 µL/min/mg | 5.7% | 28 µL/min/mg | 5.9 mL/min/kg | 24 µL/min/mg | 0.85 L/kg | 7970 ng·h/mL | 3.95 h | 5770 ng·h/mL | 0.61 ×10⁻⁶ cm/s | < 2 nM | 0.47 nM | 8.62 h | 6.46 h | 32 µL/min/mg | CC[C@H](C)[C@@H]1NC(=O)[C@H](CC(C)C)N(C)C(=O)C[C@@H](C(=O)N2CCCCC2)N(C)C(=O)[C@H](C2CCCC2)N(C)C(=O)C2(CCCC2)NC(=O)[C@@H]2CCCN2C(=O)[C@H](CCc2ccc(C(F)(F)F)c(Cl)c2)NC(=O)CN(C)C(=O)[C@H](CC2CCCCC2)N(C)C(=O)[C@@H]2CCN2C(=O)[C@H](C)N(C)C1=O ([NMeL]I[NMeA][Aze][NMeCha][Sar][hPhe(3-Cl-4-CF3)]P[Ac5c][NMeGly(cPent)][NMeD]-Piperidide; lactam N-11) | 18 nM | bioavailability [30]: 11%; half-life [31]: 8.65 h; half-life [32]: 7.3 h; t1/2 ([15]; iv, 1 mg/kg, 24 h): 6.23 h; AUC ([17]; iv, 1 mg/kg, 24 h): 2860 ng·h/mL; Vd [33]: 0.49 L/kg; clearance [34]: 1.81 mL/min/kg; AUC(0-inf) [35]: 10700 ng·h/mL; F ([24]; po, 20 mg/kg, 24 h): 16%; AUC ([27]; po, 20 mg/kg, 24 h): 3270 ng·h/mL; Vdss ([29]; iv, 1 mg/kg, 24 h): 2.6 L/kg; AUC(0-inf) [36]: 1590 ng·h/mL
